Results taken from ChEMBL document CHEMBL3351312, “Design of Fluorine-Containing 3,4-Diarylfuran-2(5H)-ones as Selective COX-1 Inhibitors” (ACS Med Chem Lett, 2014).

Columns and labels:
[1] = target: T1, Prostaglandin G/H synthase 1 (Ovis aries, UniProt P05979); test: Inhibition of ovine COX-1 assessed as inhibition of [14C]arachidonic acid to radiolabeled prostaglandins preincubated for 20 mins by TLC-based assay
T1 sequence (P05979 whole entry): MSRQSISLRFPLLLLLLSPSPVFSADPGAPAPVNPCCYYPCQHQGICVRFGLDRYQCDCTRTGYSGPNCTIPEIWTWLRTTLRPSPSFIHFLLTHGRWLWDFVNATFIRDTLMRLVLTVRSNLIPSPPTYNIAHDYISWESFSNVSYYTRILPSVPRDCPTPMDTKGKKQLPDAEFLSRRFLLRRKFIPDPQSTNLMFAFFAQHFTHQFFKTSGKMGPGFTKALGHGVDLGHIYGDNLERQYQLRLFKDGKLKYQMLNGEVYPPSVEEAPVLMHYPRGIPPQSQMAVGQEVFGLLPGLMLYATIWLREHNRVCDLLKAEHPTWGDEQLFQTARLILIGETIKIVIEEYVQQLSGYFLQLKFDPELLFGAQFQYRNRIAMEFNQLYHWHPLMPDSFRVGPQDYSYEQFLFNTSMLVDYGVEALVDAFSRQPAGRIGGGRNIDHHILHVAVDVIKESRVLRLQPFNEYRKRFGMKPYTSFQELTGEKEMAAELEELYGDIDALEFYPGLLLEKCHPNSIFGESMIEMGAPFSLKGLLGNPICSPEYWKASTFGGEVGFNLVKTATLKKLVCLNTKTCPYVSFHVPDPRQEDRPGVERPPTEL

[2] = target: T2, Prostaglandin G/H synthase 2 (Mus musculus, UniProt Q05769); test: Inhibition of mouse COX-2 assessed as inhibition of [14C]arachidonic acid to radiolabeled prostaglandins preincubated for 20 mins by TLC-based assay
T2 sequence (Q05769 whole entry): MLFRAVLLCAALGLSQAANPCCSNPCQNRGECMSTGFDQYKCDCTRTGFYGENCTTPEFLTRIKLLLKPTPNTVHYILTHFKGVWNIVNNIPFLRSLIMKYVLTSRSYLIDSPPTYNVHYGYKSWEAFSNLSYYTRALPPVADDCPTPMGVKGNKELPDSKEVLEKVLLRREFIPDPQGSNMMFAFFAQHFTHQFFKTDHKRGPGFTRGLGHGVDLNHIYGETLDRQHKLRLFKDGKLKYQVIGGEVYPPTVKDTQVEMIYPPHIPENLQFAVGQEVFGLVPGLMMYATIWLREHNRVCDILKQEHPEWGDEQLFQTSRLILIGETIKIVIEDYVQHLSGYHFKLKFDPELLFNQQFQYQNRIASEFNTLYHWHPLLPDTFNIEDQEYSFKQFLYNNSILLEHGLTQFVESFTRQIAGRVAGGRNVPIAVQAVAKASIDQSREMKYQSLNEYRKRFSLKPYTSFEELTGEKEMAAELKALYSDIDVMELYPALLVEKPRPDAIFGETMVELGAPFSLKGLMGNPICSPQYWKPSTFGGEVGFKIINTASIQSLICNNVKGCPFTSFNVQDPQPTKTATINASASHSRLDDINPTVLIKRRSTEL

[3] = target: T3, Prostaglandin G/H synthase 2 (Mus musculus) (UniProt Q05769); test: Inhibition of mouse COX-2 assessed as inhibition of [14C]arachidonic acid to radiolabeled prostaglandins measured as residual activity preincubated for 20 mins by TLC-based assay
T3 sequence (whole entry): T2 sequence (Q05769 whole entry)

[4] = target: T4, Prostaglandin G/H synthase 2 (Homo sapiens, UniProt P35354); test: Inhibition of COX-2 in human 1483 cells by cell-based assay
T4 sequence (P35354 whole entry): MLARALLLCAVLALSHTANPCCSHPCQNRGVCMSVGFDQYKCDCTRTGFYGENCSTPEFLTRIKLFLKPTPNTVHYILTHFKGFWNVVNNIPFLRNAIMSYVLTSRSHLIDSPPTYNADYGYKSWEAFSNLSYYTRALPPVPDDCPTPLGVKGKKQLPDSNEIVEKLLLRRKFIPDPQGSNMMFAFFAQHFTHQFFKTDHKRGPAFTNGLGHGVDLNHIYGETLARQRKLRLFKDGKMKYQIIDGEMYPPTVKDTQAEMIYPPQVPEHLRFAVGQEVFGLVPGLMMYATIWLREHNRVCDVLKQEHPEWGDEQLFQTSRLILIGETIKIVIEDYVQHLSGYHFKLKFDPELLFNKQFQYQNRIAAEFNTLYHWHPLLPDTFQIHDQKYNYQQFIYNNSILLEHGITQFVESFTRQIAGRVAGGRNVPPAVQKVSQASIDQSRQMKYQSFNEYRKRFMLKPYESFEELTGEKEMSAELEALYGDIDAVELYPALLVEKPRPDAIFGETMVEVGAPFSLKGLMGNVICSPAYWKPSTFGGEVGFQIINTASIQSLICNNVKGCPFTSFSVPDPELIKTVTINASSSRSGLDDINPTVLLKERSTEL

[5] = target: Prostaglandin G/H synthase 1 (Homo sapiens, UniProt P23219); test: Inhibition of COX-1 in human OVCAR3 cells by cell-based assay; parameters: species or system OVCAR-3
Chain of Prostaglandin G/H synthase 1 (Homo sapiens, UniProt P23219) (P23219 whole entry): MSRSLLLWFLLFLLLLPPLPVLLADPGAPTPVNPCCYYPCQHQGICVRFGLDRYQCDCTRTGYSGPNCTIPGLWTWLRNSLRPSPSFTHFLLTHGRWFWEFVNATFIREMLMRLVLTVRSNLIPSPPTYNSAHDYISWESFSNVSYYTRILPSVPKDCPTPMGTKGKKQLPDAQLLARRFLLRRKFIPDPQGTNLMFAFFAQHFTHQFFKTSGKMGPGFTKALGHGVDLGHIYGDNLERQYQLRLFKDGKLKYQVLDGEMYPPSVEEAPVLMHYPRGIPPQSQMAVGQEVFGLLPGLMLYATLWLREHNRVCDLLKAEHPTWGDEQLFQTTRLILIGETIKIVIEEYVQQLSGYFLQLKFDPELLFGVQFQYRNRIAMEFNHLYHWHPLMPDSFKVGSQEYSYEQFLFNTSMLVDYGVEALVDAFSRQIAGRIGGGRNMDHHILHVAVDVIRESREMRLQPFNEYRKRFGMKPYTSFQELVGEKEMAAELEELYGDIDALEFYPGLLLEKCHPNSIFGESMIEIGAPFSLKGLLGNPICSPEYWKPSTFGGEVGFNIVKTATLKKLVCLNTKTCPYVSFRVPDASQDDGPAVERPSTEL

| SMILES | IC50 [1] [µM] | IC50 [2] [µM] | Activity [3] [%] | IC50 [4] [µM] | IC50 [5] [µM] |
| --- | --- | --- | --- | --- | --- |
| CSc1ccc(C2=C(c3ccc(F)cc3)C(=O)OC2)cc1 | > 25 | > 25 |  |  |  |
| O=C1OCC(c2ccccc2F)=C1c1ccccc1 | > 25 | > 25 |  |  |  |
| CN(C)c1ccc(C2=C(c3ccc(F)cc3)COC2=O)cc1 | > 25 | > 25 |  |  |  |
| COc1ccc(C2=C(c3ccc(F)cc3)C(=O)OC2)cc1 | 0.48 | > 25 | > 50 | > 5 | 0.36 |
| COc1ccc(C2=C(c3cccc(F)c3)C(=O)OC2)cc1 | 0.36 | > 25 | > 50 |  |  |
| O=C1OCC(c2ccccc2F)=C1c1ccc(Br)cc1 | > 25 | > 25 |  |  |  |
| CCc1ccc(C2=C(c3cccc(F)c3)C(=O)OC2)cc1 | 9.75 | > 25 |  |  |  |
| COc1ccc(C2=C(c3ccc(C(F)(F)F)cc3)C(=O)OC2)cc1 | 1 | > 25 |  |  |  |
| O=C1OCC(c2ccccc2)=C1c1ccc(F)cc1 | 6 | > 25 |  | > 5 | 2.8 |
| O=C1OCC(c2ccc(F)cc2)=C1c1ccc(O)cc1 | > 25 | > 25 |  |  |  |
| O=C1OCC(c2ccccc2)=C1c1ccccc1 | 5.9 | > 25 |  |  |  |
| COc1ccc(C2=C(c3ccc(I)cc3)C(=O)OC2)cc1 | 0.09 | > 25 | > 50 | > 5 | > 4 |
| O=C1OCC(c2cccc(F)c2)=C1c1ccccc1 | > 25 | > 25 |  |  |  |
| COc1ccc(C2=C(c3cccc(C(F)(F)F)c3)C(=O)OC2)cc1 | 8.8 | > 25 |  |  |  |
| Cc1ccc(C2=C(c3ccnc(F)c3)C(=O)OC2)cc1 | > 25 | > 25 |  |  |  |
| CS(=O)(=O)c1ccc(C2=C(c3ccccc3)C(=O)OC2)cc1 [ROFECOXIB] |  | 0.06 |  |  |  |
| Cc1ccc(C2=C(c3ccc(Oc4ccc(F)cc4)cc3)C(=O)OC2)cc1 | > 25 | > 25 |  |  |  |
| O=C1OCC(c2ccccc2)=C1c1ccc(Oc2ccc(F)cc2)cc1 | > 25 | > 25 |  |  |  |
| O=C1OCC(c2ccc(Cl)cc2)=C1c1ccnc(F)c1 | 15.7 | > 25 |  |  |  |
| O=C1OCC(c2ccc(F)cc2)=C1c1ccc(Br)cc1 | > 25 | > 25 |  |  |  |
| Cc1ccc(C2=C(c3ccc(F)cc3)COC2=O)cc1 | > 25 | > 25 |  |  |  |

Results, then the compound that gave them:

| IC50 [1] [µM] | IC50 [2] [µM] | Activity [3] [%] | IC50 [4] [µM] | IC50 [5] [µM] | SMILES |
| --- | --- | --- | --- | --- | --- |
| 0.3 | > 25 | > 50 |  |  | COc1ccc(C2=C(c3cccc(Cl)c3F)C(=O)OC2)cc1 |
| 3 | > 25 |  |  |  | N#Cc1ccc(C2=C(c3ccnc(Cl)c3)C(=O)OC2)cc1 |
| > 25 | > 25 |  |  |  | O=C1OCC(c2ccccc2F)=C1c1ccc(CO)cc1 |
| > 25 | > 25 |  |  |  | O=C1OCC(c2ccccc2)=C1c1ccccc1F |
| > 25 | > 25 |  |  |  | COc1ccc(C2=C(c3ccccc3F)C(=O)OC2)cc1 |
| > 25 | > 25 |  |  |  | Cc1ccc(C2=C(c3ccccc3F)COC2=O)cc1 |
| > 25 | > 25 |  |  |  | CN(C)c1ccc(C2=C(c3ccccc3F)COC2=O)cc1 |
| > 25 | > 25 |  |  |  | O=C1OCC(c2ccc(F)cc2)=C1c1ccccc1 |
| > 25 | > 25 |  |  |  | O=C1OCC(c2ccc(Cl)cc2)=C1c1ccnc(Cl)c1 |
| > 25 | > 25 |  |  |  | Cc1ccc(C2=C(c3cccc(F)c3)C(=O)OC2)cc1 |
| 0.47 | > 25 |  |  |  | N#Cc1ccc(C2=C(c3cccc(F)c3)C(=O)OC2)cc1 |
| > 25 | > 25 |  |  |  | COc1ccc(C2=C(c3ccc(Oc4ccc(F)cc4)cc3)C(=O)OC2)cc1 |
| > 25 | > 25 |  |  |  | O=C1OCC(c2ccc(F)cc2)=C1c1ccc(CO)cc1 |
| 5 | > 25 |  |  |  | Cc1ccc(C2=C(c3ccnc(Cl)c3)C(=O)OC2)cc1 |
| > 25 | > 25 |  |  |  | Cc1ccc(C2=C(c3cccc(F)c3)COC2=O)cc1 |
| 4.4 | > 25 |  |  |  | COc1ccc(C2=C(c3ccnc(Cl)c3)C(=O)OC2)cc1 |
| 4.4 | > 25 |  |  |  | N#Cc1ccc(C2=C(c3ccnc(F)c3)C(=O)OC2)cc1 |
| > 25 | > 25 |  |  |  | O=C1OCC(c2ccc(OC(F)(F)F)cc2)=C1c1cccc(F)c1 |
| > 25 | > 25 |  |  |  | COc1ccc(C2=C(c3ccccc3)C(=O)OC2)cc1 |
| > 25 | > 25 |  |  |  | O=C1OCC(c2ccc(F)cc2)=C1c1ccc(Cl)cc1 |
| 1.75 | > 25 |  |  |  | O=C1OCC(c2ccc(O)cc2)=C1c1cccc(F)c1 |
| > 25 | > 25 |  |  |  | O=C1OCC(c2ccccc2)=C1c1cccc(F)c1 |
| 4.6 | > 25 |  |  |  | COc1ccc(C2=C(c3ccnc(F)c3)C(=O)OC2)cc1 |
| 0.12 | 0.45 |  |  |  | COc1ccc(C2=C(c3ccc(Br)cc3)C(=O)OC2)cc1 |
| > 25 | > 25 |  |  |  | O=C1OCC(c2ccccc2F)=C1c1ccc(Cl)cc1 |
| 0.95 | > 25 |  | > 5 | 0.78 | Cc1ccc(C2=C(c3ccc(F)cc3)C(=O)OC2)cc1 |
| 1 | > 25 |  |  |  | Cc1ccc(C2=C(c3ccccc3F)C(=O)OC2)cc1 |
| > 25 | > 25 |  |  |  | O=C1OCC(c2ccc(C(F)(F)F)cc2)=C1c1cccc(F)c1 |
